Activity calls are given as the source filed them. The rule behind the calls is not given here.
Experiments:
[1] = Inhibition of quorum sensing system in Pseudomonas aeruginosa transfected with lasB-gfp incubated for 20 hrs by fluorescence based multilabel plate reader analysis
[2] = Potency index, ratio of 4NPO IC50 to test compound IC50 for inhibition of quorum sensing system in Pseudomonas aeruginosa transfected with lasB-gfp incubated for 20 hrs by fluorescence based multilabel plate reader analysis
[3] = tested on: Pseudomonas aeruginosa; test: Growth inhibition of Pseudomonas aeruginosa transfected with lasB-gfp; assay type: functional, organism-based
[4] = tested on: Pseudomonas aeruginosa; test: Antibiofilm activity against Pseudomonas aeruginosa PA14 assessed as inhibition of biofilm biomass at 30 uM incubated for 48 hrs by crystal violet staining based analysis relative to control; assay type: functional
[5] = tested on: Chromobacterium violaceum; test: Inhibition of Chromobacterium violaceum ATCC 31532 quorum sensing receptor CviR at 30 uM incubated for 24 hrs by absorbance based microplate reader analysis relative to control
[6] = tested on: Chromobacterium violaceum; test: Inhibition of Chromobacterium violaceum ATCC 31532 quorum sensing receptor CviR assessed as fold change at 30 uM incubated for 24 hrs by absorbance based microplate reader analysis relative to 4NPO

| Compound | IC50 [1] [µM] | Ratio IC50 [2] | growth inhibition (GI) [3] | inhibition at 30 µM [4] [%] | inhibition [5] [%] | fold change (FC) [6] |
| --- | --- | --- | --- | --- | --- | --- |
| Cc1ccc(S(=O)(=O)Nc2ccc(C(=O)N[C@@H](Cc3ccccc3)C(=O)NO)cc2)cc1 | 7.12 | 4 | inactive | 75 | 79 | 1.5 |
| O=C(N[C@@H](Cc1ccccc1)C(=O)NO)c1ccc(COc2ccccc2)cc1 | 83.5 | – | inactive | 20 | 11 | – |
| O=C(N[C@@H](Cc1ccccc1)C(=O)NO)c1ccc2ccccc2n1 | 50.2 | – | inactive | < 1 | < 1 | – |
| O=C(Nc1ccc(Cl)cc1)c1ccc(C(=O)N[C@@H](Cc2ccccc2)C(=O)NO)cc1 | > 100 | – | inactive | < 1 | < 1 | – |
| O=C(N[C@@H](Cc1ccccc1)C(=O)NO)c1ccc(Cl)c(Cl)c1 | > 100 | – | inactive | < 1 | 35 | – |
| O=C(N[C@@H](Cc1ccccc1)C(=O)NO)c1ccc(C2CCCCC2)cc1 | 9.44 | – | inactive | 55 | 65 | – |
| O=C(Nc1ccccc1)c1ccc(C(=O)N[C@@H](Cc2ccccc2)C(=O)NO)cc1 | 92.3 | – | inactive | 11 | < 1 | – |
| O=C(N[C@@H](Cc1ccccc1)C(=O)NO)c1cc(Cl)ccc1F | 10 | – | inactive | 40 | 58 | – |
| O=C(Nc1ccccc1)Nc1ccc(C(=O)N[C@@H](Cc2ccccc2)C(=O)NO)cc1 | > 100 | – | inactive | < 1 | < 1 | – |
